Experimental data: patent publication US20230277449A1, “ORAL CAVITY POLYMERIC DELIVERY SYSTEMS” (YISSUM RESEARCH DEVELOPMENT COMPANY OF THE HEBREW …, priority 2020, published 2023)

Legend:
[1] = APO release from hydrogel-based core through dialysis bag; type: physicochemical; conditions: 20 mg APO in 0.5 ml hydrogel pH 5.9, dialysis bag
Method: DDW. 100.0, 120.0 or 150 mg fish gelatin were added. No gelatin was added to the fourth group. All work was done in triplicates. After vigorous stirring full dissolution to homogenous solution was achieved. The pH of the solutions was adjusted to 5.9 by H3PO4 and KOH. 0.5 ml of each solution was introduced into dialysis bag (Specta/PorⓇDialysis membrane, MWCO 25000, flat width 12 mm). The bags were submerged into a beaker with 100 ml 0.1% ascorbic acid solution adjusted to pH 5.9 by NaOH and HCl. The solutions were held at 34° C. (±1) with constant stirring. 100 µl samples were taken at time points 0, 10, 25, 40, 60, 90, 120, 150 and 180 min into a vial containing 1 µl of 10%^v/v mercaptoethanol ethanolic solution. 100 µl of fresh receiving solution was added to the beaker to retain sink conditions. […]
2.1.4 Chromatographic analysis of in-vitro samples: The samples were injected into Waters 2695 Separation Module HPLC system coupled with Waters 2475 Multi Gamma Fluorescence Detector (Waters Co., MA, USA), into BDS Hypersil Cyano (Phenomenex, CA, USA) column (5 µm, 100 Å, 250 mm × 4.6 mm) protected by Hypersil Cyano (Phenomenex, CA, USA) pre-column (5 µm, 4 mm × 10 mm). […] Linearity curve (2.5-250 µg/ml, R^2>0.997) was performed before the batch of samples and used for quantification.

[2] = Ex-vivo permeability of APO, MTP and ATN in Ussing diffusion chamber; type: in vitro ADME, pig; conditions: pH 7.4 with addition of 10% v/v NLF
[3] = Ex-vivo - in-vivo correlation (Jss and Css calculated from Papp for pig)
Method: where dQ/dt is the amount of test substance permeated over time and A is the area of buccal mucosa available for permeation. Plasma levels at steady state (Css) of the test substance following in-vivo buccal administration are calculated by Eq. 2:
Apparent permeability (Papp) is calculated by Eq. 3:
where Co is the initial concentration of the test substance near the buccal mucosa in the ABPD at the beginning of the experiment.

CN1CCc2cccc3c2[C@H]1Cc1ccc(O)c(O)c1-3 [APO, apomorphine]
time at which all APO dose was released [1]: 1.5 h
lag-time [2]: 3 h
ex-vivo predicted Css lower than in-vivo Css [3]: 4 times
Jss calculated ([3]; pH 5.9, 40 mg/ml APO in hydrogel, Eq. 3): 0.073 mg/(cm^2*h)
Css calculated from ex-vivo Papp ([3]; pig of 43 kg, 4.74 cm^2, Eq. 2): 0.59 ng/mL
